Patent US11096985B2, “Antimicrobial peptides, their variants and uses” (priority 2015, dated 2021)
Where a SMILES comes first, the peptide text is derived from it. [ ]: non-standard residue; d: D form.

How the values were obtained:
[1] = system: clinical strains of Escherichia coli; assay: MIC, clinical strains of E. coli; format: cell-based; parameters: unit: μg/ml; conditions: microdilution, Muller Hinton broth-cation adjusted, 0.02% BSA, 0.2% acetic acid
How it was run: (§1)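 Clinical isolates at 5.0×10^5 cfu/ml in Mueller-Hinton broth (Potato dextrose broth for yeasts) were exposed to Chain peptides at 0.125–128 μg/ml by broth microdilution, 37 °C for 20–24 h. MIC was the lowest concentration with no visible growth.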

[2] = system: clinical strains of Candida albicans; assay: MIC, clinical yeast strains, Candida albicans; format: cell-based; parameters: unit: μg/ml
How it was run: as §1

[3] = system: clinical strains of Serratia marcescens; assay: MIC, clinical strains of Serratia marcescens; format: cell-based; parameters: unit: µg/mL; conditions: microdilution, Muller Hinton broth-cation adjusted, 0.02% BSA, 0.2% acetic acid
How it was run: as §1

[4] = system: clinical strains of Enterobacter cloacae; assay: MIC, clinical strains of Enterobacter cloacae; format: cell-based; parameters: unit: μg/ml; conditions: microdilution, Muller Hinton broth-cation adjusted, 0.02% BSA, 0.2% acetic acid
How it was run: as §1

[5] = system: clinical strains of C. quillermondiae; assay: MIC, clinical yeast strains, C. quillermondiae; format: cell-based; conditions: C. quillermondiae clinical yeast strain 1
How it was run: as §1

[6] = system: clinical strains of Proteus mirabilis; assay: MIC, clinical strains of Proteus mirabilis; format: cell-based; parameters: unit: µg/mL; conditions: microdilution, Muller Hinton broth-cation adjusted, 0.02% BSA, 0.2% acetic acid
How it was run: as §1

[7] = system: clinical strains of Staphylococcus aureus; assay: MIC, clinical strains of S. aureus; format: cell-based; parameters: unit: μg/ml; conditions: microdilution, Muller Hinton broth-cation adjusted, 0.02% BSA, 0.2% acetic acid
How it was run: as §1

[8] = system: clinical strains of Streptococcus pneumoniae; assay: MIC, clinical strains of Streptococcus pneumoniae; format: cell-based; parameters: unit: µg/mL; conditions: microdilution, Muller Hinton broth-cation adjusted, 0.02% BSA, 0.2% acetic acid
How it was run: as §1

[9] = system: clinical strains of Klebsiella pneumoniae; assay: MIC, clinical strains of K. pneumoniae; format: cell-based; parameters: unit: μg/ml; conditions: microdilution, Muller Hinton broth-cation adjusted, 0.02% BSA, 0.2% acetic acid
How it was run: as §1

[10] = system: clinical strains of Pseudomonas aeruginosa; assay: MIC, clinical strains of P. aeruginosa; format: cell-based; parameters: unit: μg/ml; conditions: microdilution, Muller Hinton broth-cation adjusted, 0.02% BSA, 0.2% acetic acid
How it was run: as §1

[11] = system: clinical strains of Acinetobacter baumannii; assay: MIC, clinical strains of Acinetobacter baumannii; format: cell-based; conditions: microdilution, Muller Hinton broth-cation adjusted, 0.02% BSA, 0.2% acetic acid
Experimental: Minimum inhibition concentrations (MICs) were determined against Escherichia coli (ATCC 25922), Staphylococcus aureus (ATCC 25923), Klebsiella pneumoniae (ATCC 10031) and Pseudomonas aeruginosa (ATCC 27853). Also clinical strains of E. coli, K. pneumoniae, E. cloacae, P. aeruginosa, Serratia marcescens, Proteus mirabilis, S. pneumoniae, Acinetobacter baumannii, A. johnsonii and S. aureus were used for MICs assays. Additionally, clinical strains of yeast including Candida albicans, C. glabrata, C. parapsilosis and C. quillermondiae were used. The susceptibility of these microorganisms to Chain peptides were determined using micro broth dilution assay. Colonies of the respective microorganism from Muller Hinton (MH) agar plates incubated overnight were suspended in MH broth media and final concentration of microorganism was adjusted to 5.0×10^5 cfu/ml. An aliquot of 10 μl of each Chain peptide, or gentamicin, tetracycline as reference antibiotics were added in differing concentrations along with 90 μl of bacterial suspension to 96 well polypropylene plates and incubated at 37° C. for 20 to 24 hours. Concentrations of Chain peptides and reference antibiotics ranged from 0.125 to 128 μg/ml and the MICs were recorded as the lowest concentration with no visual growth of bacteria. Similarly, antifungal MICs were tested in Potato dextrose broth.
Clinical strains of yeasts including Candida albicans, C. glabrata, C. parapsilosis and C. quillermondiae were also tested with the 12 Chain peptides. The minimum inhibitory concentration (MICs) varied between these peptides and are presented in Tables 4a, 4b, 4c and 5a, 5b, 5c. Peptides Chain 105, 201 and 308 are broad spectrum antimicrobials with MICs between 0.5-32 μg/ml against all the bacteria and yeasts tested, except Serratia marcescens and Proteus mirabilis, against which the MICs were between 64-128 μg/ml. Peptide Chain 306 has narrow spectrum activity against E.coli at 1 μg/ml and for the rest of the bacterial strains at >32 μg/ml (FIG. 10).

[12] = system: clinical strains of C. glabrata; assay: MIC, clinical yeast strains, C. glabrata; format: cell-based, Candida glabrata; parameters: unit: μg/ml
How it was run: as §1

[13] = system: clinical strains of C. parapsilosis; assay: MIC, clinical yeast strains, C. parapsilosis; format: cell-based, Candida parapsilosis; parameters: unit: μg/ml
How it was run: as §1

CC[C@@H](C)[C@@H](NC(=O)[C@@H](Cc1c[nH]c2ccccc12)NC(=O)[C@H](N)CCCCN)C(=O)N[C@@H](C(=O)N[C@H](Cc1c[nH]c2ccccc12)C(=O)N[C@H](CCCNC(=N)N)C(=O)N[C@H](Cc1c[nH]c2ccccc12)C(=O)N[C@H](CCCNC(=N)N)C(=O)N[C@H](Cc1ccccc1)C(=O)N[C@H](CCCCN)C(=O)N[C@H](CCCNC(=N)N)C(=O)O)C(C)C [Chain201D] (H-[dK][dW][dI][dV][dW][dR][dW][dR][dF][dK][dR]-OH)
Minimum inhibitory concentration ([1]; Escherichia coli clinical strain 1): 16 | Minimum inhibitory concentration ([1]; Escherichia coli clinical strain 2): 1 | Minimum inhibitory concentration ([1]; Escherichia coli clinical strain 3): 1 | Minimum inhibitory concentration ([1]; Escherichia coli clinical strain 4): 1 | Minimum inhibitory concentration ([1]; Escherichia coli clinical strain 5): 1 | Minimum inhibitory concentration ([2]; Candida albicans clinical yeast strain 1): 16 | Minimum inhibitory concentration ([2]; Candida albicans clinical yeast strain 2): 8 | Minimum inhibitory concentration ([2]; Candida albicans clinical yeast strain 3): 8 | Minimum inhibitory concentration ([2]; Candida albicans clinical yeast strain 4): 16 | Minimum inhibitory concentration ([2]; Candida albicans clinical yeast strain 5): 8 | Minimum inhibitory concentration ([3]; Serratia marcescens clinical strain 1): 64 | Minimum inhibitory concentration ([3]; Serratia marcescens clinical strain 2): 64 | Minimum inhibitory concentration ([3]; Serratia marcescens clinical strain 3): 64 | Minimum inhibitory concentration ([3]; Serratia marcescens clinical strain 4): 64 | Minimum inhibitory concentration ([3]; Serratia marcescens clinical strain 5): 128 | Minimum inhibitory concentration ([4]; Enterobacter cloacae clinical strain 1): 1 | Minimum inhibitory concentration ([4]; Enterobacter cloacae clinical strain 2): 2 | Minimum inhibitory concentration ([4]; Enterobacter cloacae clinical strain 3): 2 | Minimum inhibitory concentration ([4]; Enterobacter cloacae clinical strain 4): 2 | Minimum inhibitory concentration ([4]; Enterobacter cloacae clinical strain 5): 1 | Minimum inhibitory concentration [5]: 8 | Minimum inhibitory concentration ([6]; Proteus mirabilis clinical strain 1): >128 | Minimum inhibitory concentration ([6]; Proteus mirabilis clinical strain 2): 32 | Minimum inhibitory concentration ([6]; Proteus mirabilis clinical strain 3): 64 | Minimum inhibitory concentration ([6]; Proteus mirabilis clinical strain 4): >128 | Minimum inhibitory concentration ([6]; Proteus mirabilis clinical strain 5): >128 | Minimum inhibitory concentration ([7]; Staphylococcus aureus clinical strain 1): 1 | Minimum inhibitory concentration ([7]; Staphylococcus aureus clinical strain 2): 1 | Minimum inhibitory concentration ([7]; Staphylococcus aureus clinical strain 3): 1 | Minimum inhibitory concentration ([7]; Staphylococcus aureus clinical strain 4): 1 | Minimum inhibitory concentration ([7]; Staphylococcus aureus clinical strain 5): 1 | Minimum inhibitory concentration ([8]; Streptococcus pneumoniae clinical strain 1): 8 | Minimum inhibitory concentration ([8]; Streptococcus pneumoniae clinical strain 2): 4 | Minimum inhibitory concentration ([8]; Streptococcus pneumoniae clinical strain 3): 2 | Minimum inhibitory concentration ([8]; Streptococcus pneumoniae clinical strain 4): 4 | Minimum inhibitory concentration ([8]; Streptococcus pneumoniae clinical strain 5): 4 | Minimum inhibitory concentration ([9]; Klebsiella pneumoniae clinical strain 1): 2 | Minimum inhibitory concentration ([9]; Klebsiella pneumoniae clinical strain 2): 2 | Minimum inhibitory concentration ([9]; Klebsiella pneumoniae clinical strain 3): 4 | Minimum inhibitory concentration ([9]; Klebsiella pneumoniae clinical strain 4): 4 | Minimum inhibitory concentration ([9]; Klebsiella pneumoniae clinical strain 5): 2 | Minimum inhibitory concentration ([10]; Pseudomonas aeruginosa clinical strain 1): 4 | Minimum inhibitory concentration ([10]; Pseudomonas aeruginosa clinical strain 2): 4 | Minimum inhibitory concentration ([10]; Pseudomonas aeruginosa clinical strain 3): 4 | Minimum inhibitory concentration ([10]; Pseudomonas aeruginosa clinical strain 4): 2 | Minimum inhibitory concentration ([10]; Pseudomonas aeruginosa clinical strain 5): 2 | Minimum inhibitory concentration ([11]; Acinetobacter baumannii clinical strain 1): 4 | Minimum inhibitory concentration ([11]; Acinetobacter baumannii clinical strain 2): 4 | Minimum inhibitory concentration ([11]; Acinetobacter baumannii clinical strain 3): 4 | Minimum inhibitory concentration ([11]; Acinetobacter baumannii clinical strain 4): 4 | Minimum inhibitory concentration ([11]; Acinetobacter baumannii clinical strain 5): 4 | Minimum inhibitory concentration ([12]; C. glabrata clinical yeast strain 1): 8 | Minimum inhibitory concentration ([12]; C. glabrata clinical yeast strain 2): 8 | Minimum inhibitory concentration ([12]; C. glabrata clinical yeast strain 3): 8 | Minimum inhibitory concentration ([12]; C. glabrata clinical yeast strain 4): 64 | Minimum inhibitory concentration ([13]; C. parapsilosis clinical yeast strain 1): 8 | Minimum inhibitory concentration ([13]; C. parapsilosis clinical yeast strain 2): 8 | Minimum inhibitory concentration ([13]; C. parapsilosis clinical yeast strain 3): 8 | Minimum inhibitory concentration ([13]; C. parapsilosis clinical yeast strain 4): 8
